According to PubChem BioAssay (NCI):
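Protocol summary: plate cells (96-well), add compound at 5 concentrations, incubate 48 h, interpolate endpoints linearly. The concentration for 50% growth inhibition is given as GI50. The concentration for full growth arrest is given as TGI.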

Key:
Experiment in all cases: growth of human tumour cells (NCI), 48 h
786-0 renal = system: 786-0 renal
A498 renal = system: A498 renal
A549 NSCLC = system: A549 NSCLC
ACHN renal = system: ACHN renal
BT-549 breast = system: BT-549 breast
CAKI-1 renal = system: CAKI-1 renal
CCRF-CEM leukemia = system: CCRF-CEM leukemia
COLO 205 colon = system: COLO 205 colon
DU-145 prostate = system: DU-145 prostate
EKVX NSCLC = system: EKVX NSCLC
HCC-2998 colon = system: HCC-2998 colon
HCT-116 colon = system: HCT-116 colon
HCT-15 colon = system: HCT-15 colon
HL-60(TB) leukemia = system: HL-60(TB) leukemia
HOP-62 NSCLC = system: HOP-62 NSCLC
HOP-92 NSCLC = system: HOP-92 NSCLC
HS 578T breast = system: HS 578T breast
HT29 colon = system: HT29 colon
IGROV1 ovarian = system: IGROV1 ovarian
K-562 leukemia = system: K-562 leukemia
KM12 colon = system: KM12 colon
LOX IMVI melanoma = system: LOX IMVI melanoma
M14 melanoma = system: M14 melanoma
MALME-3M melanoma = system: MALME-3M melanoma
MCF7 breast = system: MCF7 breast
MDA-MB-231 breast = system: MDA-MB-231 breast
MDA-MB-435 = system: MDA-MB-435
MOLT-4 leukemia = system: MOLT-4 leukemia
NCI-H226 lung = system: NCI-H226 lung
NCI-H23 lung = system: NCI-H23 lung
NCI-H460 lung = system: NCI-H460 lung
NCI-H522 lung = system: NCI-H522 lung
NCI/ADR-RES ovarian = system: NCI/ADR-RES ovarian
OVCAR-3 ovarian = system: OVCAR-3 ovarian
OVCAR-4 ovarian = system: OVCAR-4 ovarian
OVCAR-5 ovarian = system: OVCAR-5 ovarian
OVCAR-8 ovarian = system: OVCAR-8 ovarian
PC-3 prostate = system: PC-3 prostate
RPMI-8226 leukemia = system: RPMI-8226 leukemia
RXF 393 renal = system: RXF 393 renal
SF-268 CNS = system: SF-268 CNS
SF-295 CNS = system: SF-295 CNS
SF-539 CNS = system: SF-539 CNS
SK-MEL-2 melanoma = system: SK-MEL-2 melanoma
SK-MEL-28 melanoma = system: SK-MEL-28 melanoma
SK-MEL-5 melanoma = system: SK-MEL-5 melanoma
SK-OV-3 ovarian = system: SK-OV-3 ovarian
SN12C renal = system: SN12C renal
SNB-19 CNS = system: SNB-19 CNS
SNB-75 CNS = system: SNB-75 CNS
SR leukemia = system: SR leukemia
SW-620 colon = system: SW-620 colon
T-47D breast = system: T-47D breast
TK-10 renal = system: TK-10 renal
U251 CNS = system: U251 CNS
UACC-257 melanoma = system: UACC-257 melanoma
UACC-62 melanoma = system: UACC-62 melanoma
UO-31 renal = system: UO-31 renal

C=C1C(=O)OC2CC3(C)OC3C3OC3C3=CC(OC3=O)C12 (stereo unspecified)
GI50 (786-0 renal): 17.2 µM
TGI (786-0 renal): 33.8 µM
GI50 (A498 renal): 15.8 µM
TGI (A498 renal): 30.5 µM
GI50 (A549 NSCLC): 21.3 µM
TGI (A549 NSCLC): 46.8 µM
GI50 (ACHN renal): 1.81 µM
TGI (ACHN renal): 3.35 µM
GI50 (BT-549 breast): 8.33 µM
TGI (BT-549 breast): 21.5 µM
GI50 (CAKI-1 renal): 1.48 µM
TGI (CAKI-1 renal): 3 µM
GI50 (CCRF-CEM leukemia): 1.05 µM
TGI (CCRF-CEM leukemia): 3.2 µM
GI50 (COLO 205 colon): 0.539 µM
TGI (COLO 205 colon): 1.25 µM
GI50 (DU-145 prostate): 16.6 µM
TGI (DU-145 prostate): 34.3 µM
GI50 (EKVX NSCLC): 19 µM
TGI (EKVX NSCLC): 41.9 µM
GI50 (HCC-2998 colon): 17.4 µM
TGI (HCC-2998 colon): 33.9 µM
GI50 (HCT-116 colon): 1.67 µM
TGI (HCT-116 colon): 3.15 µM
GI50 (HCT-15 colon): 2.4 µM
TGI (HCT-15 colon): 6.45 µM
GI50 (HL-60(TB) leukemia): 2.13 µM
TGI (HL-60(TB) leukemia): 4.83 µM
GI50 (HOP-62 NSCLC): 15.2 µM
TGI (HOP-62 NSCLC): 41.5 µM
GI50 (HOP-92 NSCLC): 2.01 µM
TGI (HOP-92 NSCLC): 4.77 µM
GI50 (HS 578T breast): 19.3 µM
TGI (HS 578T breast): 68.7 µM
GI50 (HT29 colon): 3.21 µM
TGI (HT29 colon): 10.8 µM
GI50 (IGROV1 ovarian): 21.2 µM
TGI (IGROV1 ovarian): 40.7 µM
GI50 (K-562 leukemia): 2.54 µM
TGI (K-562 leukemia): 6.85 µM
GI50 (KM12 colon): 18.7 µM
TGI (KM12 colon): 37.7 µM
GI50 (LOX IMVI melanoma): 4.18 µM
TGI (LOX IMVI melanoma): 12.1 µM
GI50 (M14 melanoma): 8.75 µM
TGI (M14 melanoma): 24.2 µM
GI50 (MALME-3M melanoma): 2.12 µM
TGI (MALME-3M melanoma): 4.19 µM
GI50 (MCF7 breast): 6.05 µM
TGI (MCF7 breast): 27.6 µM
GI50 (MDA-MB-231 breast): 8.33 µM
TGI (MDA-MB-231 breast): 22.7 µM
GI50 (MDA-MB-435): 9.57 µM
TGI (MDA-MB-435): 29.3 µM
GI50 (MOLT-4 leukemia): 3.25 µM
TGI (MOLT-4 leukemia): 9.75 µM
GI50 (NCI-H226 lung): 8.82 µM
TGI (NCI-H226 lung): 28.5 µM
GI50 (NCI-H23 lung): 13.4 µM
TGI (NCI-H23 lung): 32.6 µM
GI50 (NCI-H460 lung): 19.9 µM
TGI (NCI-H460 lung): 41.3 µM
GI50 (NCI-H522 lung): 0.299 µM
TGI (NCI-H522 lung): 0.904 µM
GI50 (NCI/ADR-RES ovarian): 27.2 µM
TGI (NCI/ADR-RES ovarian): 69.3 µM
GI50 (OVCAR-3 ovarian): 2.03 µM
TGI (OVCAR-3 ovarian): 3.61 µM
GI50 (OVCAR-4 ovarian): 2.14 µM
TGI (OVCAR-4 ovarian): 4.86 µM
GI50 (OVCAR-5 ovarian): 9.05 µM
TGI (OVCAR-5 ovarian): 25.7 µM
GI50 (OVCAR-8 ovarian): 3.32 µM
TGI (OVCAR-8 ovarian): 19.3 µM
GI50 (PC-3 prostate): 15.9 µM
TGI (PC-3 prostate): 32.9 µM
GI50 (RPMI-8226 leukemia): 7.34 µM
TGI (RPMI-8226 leukemia): 33.2 µM
GI50 (RXF 393 renal): 1.81 µM
TGI (RXF 393 renal): 3.66 µM
GI50 (SF-268 CNS): 19 µM
TGI (SF-268 CNS): 38 µM
GI50 (SF-295 CNS): 37.4 µM
TGI (SF-295 CNS): > 100 µM
GI50 (SF-539 CNS): 4.43 µM
TGI (SF-539 CNS): 16.7 µM
GI50 (SK-MEL-2 melanoma): 15.4 µM
TGI (SK-MEL-2 melanoma): 36.4 µM
GI50 (SK-MEL-28 melanoma): 5.75 µM
TGI (SK-MEL-28 melanoma): 12.5 µM
GI50 (SK-MEL-5 melanoma): 14.9 µM
TGI (SK-MEL-5 melanoma): 30.3 µM
GI50 (SK-OV-3 ovarian): 25.4 µM
TGI (SK-OV-3 ovarian): > 57 µM
GI50 (SN12C renal): 11.3 µM
TGI (SN12C renal): 25.2 µM
GI50 (SNB-19 CNS): > 100 µM
TGI (SNB-19 CNS): > 100 µM
GI50 (SNB-75 CNS): 14.5 µM
TGI (SNB-75 CNS): 38.6 µM
GI50 (SR leukemia): 2.82 µM
TGI (SR leukemia): 7.81 µM
GI50 (SW-620 colon): 1.35 µM
TGI (SW-620 colon): 3.04 µM
GI50 (T-47D breast): 1.17 µM
TGI (T-47D breast): 4.45 µM
GI50 (TK-10 renal): 1.91 µM
TGI (TK-10 renal): 3.39 µM
GI50 (U251 CNS): 17.7 µM
TGI (U251 CNS): 35 µM
GI50 (UACC-257 melanoma): 1.92 µM
TGI (UACC-257 melanoma): 4.03 µM
GI50 (UACC-62 melanoma): 9.11 µM
TGI (UACC-62 melanoma): 22.3 µM
GI50 (UO-31 renal): 2.84 µM
TGI (UO-31 renal): 7.54 µM
